# Test results as given in patent publication US4289775A, “Penicillins” (Karl Thomae GmbH, priority 1979, dated 1981).
# Columns and labels:
# [1] = test system: Escherichia coli ATCC 11775; experiment: serial dilution test in the microtiter system, MIC; format: cell-based; details: ATCC11775, E. Coli ATCC 11775, 37° C., 18-20 hours
# Protocol: (§1) The tests were performed according to the method of the serial dilution test in the microtiter system. The effect of the test substances on bacteriostasis was examined in a fluid medium. The bacteristatic activity was examined at the following concentrations: 80, 40, 20, 10, 5, 2.5, 1.25, 0.6, 0.3, 0.08 and 0.01 μgm/ml.
# (§2) The nutrient medium consisted of: 10 gm of peptone, 8 gm of meat extract oxoid, 3 gm of sodium chloride, and 2 gm of sec. sodium phosphate diluted with distilled water to 1000 ml (pH 7.2-7.4). Only in the test against streptococci was 1% of glucose added. The age of the primary cultures was about 20 hours. The standardization of the microorganism suspension was effected by means of a photometer according to the method of Eppendorf (test tube diameter 14 mm, filter 546 nm), using for comparison a barium sulfate suspension formed by the addition of 3.0 ml of 1% barium chloride solution to 97 ml of 1% sulfuric acid. After the standardization, the Streptococcus aronson was further diluted to a concentration of 1:15 and the other microorganisms to a concentration of 1:1500 using a sodium chloride solution. 16 mgm of the test compound were placed into a 10 ml measuring flask, and the flask was filled up to the mark with the solvent. The further dilution series was standardized with distilled water or the particular solvent.
# (§3) The cavities of microtiter plates were filled with 0.2 ml of nutrient medium. Then, 0.01 ml of the appropriate test compound solution was added, followed by inoculation with 0.01 ml of the standardized microorganism suspension. The bacteria were incubated at 37° C. for 18-20 hours. Control tests using only the solvent were carried out simultaneously.
# (§4) The measurement was carried out macroscopically to determine the minimum inhibitory concentration (the lowest still bacteriostatically effective concentration).
# (§5) Staphylococcus aureus SG 511, Escherichia coli ATCC 9637 and 11775, Pseudomonas aeruginosa Hamburgensis, ATCC 10145 and Pseudomonas aeruginosa Walter, Serratia marcescens ATCC 13880, Klebsiella pneumoniae ATCC 10031 and 272 and Proteus mirabilis Hamburgensis.
# [2] = test system: Escherichia coli ATCC 9637; experiment: serial dilution test in the microtiter system, MIC; format: cell-based; details: ATCC9637, E. Coli ATCC 9637, 37° C., 18-20 hours
# Protocol: as §1, §2, §3, §4, §5
# [3] = test system: Klebsiella pneumoniae 272; experiment: serial dilution test in the microtiter system, MIC; format: cell-based; details: Klebs. pneum. 272, 37° C., 18-20 hours
# Protocol: as §1, §2, §3, §4, §5
# [4] = test system: Klebsiella pneumoniae ATCC 10031; experiment: serial dilution test in the microtiter system, MIC; format: cell-based; details: ATCC10031, Klebs. pneum. ATCC 10031, 37° C., 18-20 hours
# Protocol: as §1, §2, §3, §4, §5
# [5] = test system: Proteus mirabilis Hamburgensis; experiment: serial dilution test in the microtiter system, MIC; format: cell-based; details: Prot. mirabilis ham., 37° C., 18-20 hours
# Protocol: as §1, §2, §3, §4, §5
# [6] = test system: Pseudomonas aeruginosa ATCC 10145; experiment: serial dilution test in the microtiter system, MIC; format: cell-based; details: ATCC10145, Pseud. aerug. ATCC 10145, 37° C., 18-20 hours
# Protocol: as §1, §2, §3, §4, §5
# [7] = test system: Pseudomonas aeruginosa Hamburgensis; experiment: serial dilution test in the microtiter system, MIC; format: cell-based; details: Pseud. aerug. hamb., 37° C., 18-20 hours
# Protocol: as §1, §2, §3, §4, §5
# [8] = test system: Pseudomonas aeruginosa Walter; experiment: serial dilution test in the microtiter system, MIC; format: cell-based; details: Pseud. aerug. Walter, 37° C., 18-20 hours
# Protocol: as §1, §2, §3, §4, §5
# [9] = test system: Serratia marcescens ATCC 13880; experiment: serial dilution test in the microtiter system, MIC; format: cell-based; details: ATCC13880, Serrat. marsec., 37° C., 18-20 hours
# Protocol: as §1, §2, §3, §4, §5
# E.coli ATCC 11775 = experiment: in vivo test against experimental E. coli infection in mice; design: species or system Female NMRI mice; details: Escherichia coli, ATCC11775, sc, 168 h, dose at which 50% of the animals survived, subcutaneous, three times first day, twice second day, observation 7 days
# Protocol: (§6) The compounds according to the invention were tested in vivo in mice against experimental infections. As pathogenic bacteria E.coli ATCC 11775 and Pseudomonas aeruginosa Walter were used. An intraperitoneal infection was induced in each mouse with 0.2 ml of a 5% mucin suspension of the bacteria corresponding to about 1.4×10^6 E. coli germs and 1.3×10^6 pseudomonas germs/mouse. Female NMRI mice were used, divided into groups of 10 animals. Two groups were untreated and the remaining groups were treated with different doses of the penicillins to be tested to determine the ED50 (dose at which 50% of the animals survived). The groups infected with E. coli were on the first day treated with the test compound three times ([…] post infectionem) and on the second day twice. The groups with the pseudomonas infection were on the first day treated with the test compound 6 times (1, 3, 5, 7, 9 and 11 hours post infectionem) and on the second and third day twice.
# (§7) The observation time was in both cases 7 days.
# [10] = test system: Pseudomonas aeruginosa Walter; experiment: in vivo test against experimental Pseudomonas infection in mice; design: species or system Female NMRI mice; details: sc, 168 h, dose at which 50% of the animals survived, subcutaneous, 6 times first day, twice on second and third day, observation 7 days
# Protocol: as §6, §7
smiles,measurement,setting,value
"COCCNc1ncc(NC(=O)N[C@@H](C(=O)N[C@@H]2C(=O)N3[C@@H]2SC(C)(C)[C@@H]3C(=O)O)c2ccc(O)cc2)c(O)n1 [A, D-α-[3-(4-hydroxy-2-{2'-methoxyethylamino}-5-pyrimidinyl)-ureido]-p-hydroxybenzyl-penicillin sodium]",MIC,[1],1.25 µg/mL
same,MIC,[2],1.25 µg/mL
same,MIC,[3],40 µg/mL
same,MIC,[4],20 µg/mL
same,MIC,[5],0.6 µg/mL
same,MIC,[6],1.25 µg/mL
same,MIC,[7],1.25 µg/mL
same,MIC,[8],5 µg/mL
same,MIC,[9],0.6 µg/mL
same,ED50,E.coli ATCC 11775,2 mg/kg
same,ED50,[10],1.5 mg/kg
"CC1(C)S[C@@H]2[C@H](NC(=O)[C@H](NC(=O)Nc3cnc(NCCCO)nc3O)c3ccc(O)cc3)C(=O)N2[C@H]1C(=O)O [B, D-α-[3-(4-hydroxy-2-{3'-hydroxypropylamino-}-5-pyrimidinyl)-ureido]-p-hydroxy-benzylpenicillin sodium]",MIC,[1],0.6 µg/mL
same,MIC,[2],0.6 µg/mL
same,MIC,[3],10 µg/mL
same,MIC,[4],10 µg/mL
same,MIC,[5],0.3 µg/mL
same,MIC,[6],1.25 µg/mL
same,MIC,[7],1.25 µg/mL
same,MIC,[8],5 µg/mL
same,MIC,[9],1.25 µg/mL
same,ED50,E.coli ATCC 11775,0.8 mg/kg
same,ED50,[10],1.2 mg/kg
"CCOC(=O)CCNc1ncc(NC(=O)NC(C(=O)NC2C(=O)N3C2SC(C)(C)C3C(=O)O)c2ccc(O)cc2)c(O)n1 [D, D-α-[3-(2-{2'-ethoxycarbonylethylamino}-4-hydroxy-5-pyrimidinyl)-ureido]-p-hydroxy-benzylpencillin sodium]",MIC,[1],0.6 µg/mL
same,MIC,[2],0.3 µg/mL
same,MIC,[3],10 µg/mL
same,MIC,[4],10 µg/mL
same,MIC,[5],0.3 µg/mL
same,MIC,[6],2.5 µg/mL
same,MIC,[7],2.5 µg/mL
same,MIC,[8],2.5 µg/mL
same,MIC,[9],1.25 µg/mL
same,ED50,E.coli ATCC 11775,4.2 mg/kg
"CC1(C)S[C@@H]2[C@H](NC(=O)[C@H](NC(=O)N3CCNC3=O)c3ccccc3)C(=O)N2[C@H]1C(=O)O [F, azlocillin, reference compound]",MIC,[3],40 µg/mL
same,MIC,[4],40 µg/mL
same,MIC,[5],1.25 µg/mL
same,MIC,[9],5 µg/mL
